Test results from PMC9821961, “Ring-Modified Histidine-Containing Cationic Short Peptides Exhibit Anticryptococcal Activity by Cellular Disruption” (Molecules, 2022).
Values after ≈ are worked out from the molar mass of the structure shown.

Assays:
E. coli = assay: microbe, parasite or virus in culture; assay type: cell-based, Escherichia coli; settings: 48 h
Excerpt: Microbial strains: Microbial strains were procured from National Culture Collection of Pathogenic Fungi (NCCPF) at the Postgraduate Institute of Medical Education & Research (PGIMER), Chandigarh and Microbial Type Culture Collection and Gene bank (MTCC) at the Institute of Microbial Technology (IMTECH), Chandigarh, India. Peptides were screened against five different strains of fungi: viz. Candida albicans (NCCPF400034), Candida glabrata (MTCC 3019), Candida parapsilosis (NCCPF 440002), Candida krusei (NCCPF 440002) and Cryptococcus neoformans (NCCPF250316), and five strains of bacteria: viz. Escherichia coli (MTCC 2961), Staphylococcus aureus (MTCC 3160), Enterococcus faecalis (MTCC 439), Streptococcus pyogenes (MTCC 442) and Pseudomonas aeruginosa (MTCC 3542).
Growth media: Antifungal susceptibility testing was carried out using standard broth microdilution assays as per the Clinical and Laboratory Standards Institute (CLSI) guidelines for fungi. RPMI 1640 (Sigma), yeast extract, peptone and dextrose (YPED, Himedia) were used as the incubation broths. The cells were diluted to a cell density of 10^3 colony forming unit (CFU/mL) and incubated at 30 °C for 48 h. Furthermore, Muller Hinton (Himedia) media was utilized for bacterial strains and antibacterial activity was evaluated per CLSI guidelines for bacteria. […] Amphotericin B (Himedia, India) and rifampicin (Himedia, India) were used as standard drugs for the evaluation of activity against all the fungal and bacterial strains, respectively.
The stock solutions of peptides (2 mg/mL) were prepared in DMSO. Specific amounts of peptide from stock solution were added to a 96-well microtiter plate containing 100 μL of growth media and then serially diluted two-fold. A further 100 μL of growth media containing microbial cells were added to each well and incubated at 30–37 °C for 24–48 h. The optical density (OD) was measured at 600 nm using a BioStack Ready (BioTek Instruments, Winooski, VT, USA) microplate reader to analyze microbial growth inhibition, and IC50 and MIC values were calculated. To visualize the growth and inhibition pattern, a solution of 3-(4,5-dimethylthiazol-2-yl)-2,5-diphenyltetrazolium bromide (MTT) in water was added to the plate and incubated for 2–3 h. MTT reacts with the mitochondrial dehydrogenases, which are present only in a viable cell, to give blue colored formazan crystals. Therefore, a darker color indicates a high number of viable cells; however, non-viable cells appear pale or colorless.

in vitro = settings: human, HEK-293 cells
Procedure: (§2) The cells (50,000 cells/well) were seeded to the wells of the plate in Dulbecco’s Modified Eagle Medium (DMEM) supplemented with 10% fetal bovine serum at 37 °C overnight and incubated for 24 h to achieve confluency. Peptides at different concentrations of 50, 25, 12.5, 6.25, 3.12, 1.56 and 0.78 μg/mL were added to the cells in separate wells and incubated at 37 °C for 18 h. A further 20 µL MTT solution (5 mg/mL stock conc. in PBS) was added and the plate was incubated for another 3–4 h. To detect the viable cells that react with MTT to make formazan crystals, 120 μL of supernatant was removed and 100 μL DMSO was added to dissolve the crystals. Untreated cells and DMSO (10%) were used as negative and positive controls, respectively [37]. The percent viability of cells was calculated using equation:(2) % Cell viability=Av. Absorbance of treated cells/Av. Absorbance of control cells×100

C. glabrata = assay: microbe, parasite or virus in culture; assay type: cell-based, Candida glabrata; settings: 48 h
Method in brief: (§1)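 CLSI broth microdilution with two-fold serial dilutions of DMSO-dissolved peptides. Fungi (C. glabrata MTCC 3019, C. neoformans NCCPF250316) were grown in RPMI 1640 or YPED at 10^3 CFU/mL for 48 h at 30 °C. Bacteria (S. aureus MTCC 3160, E. faecalis MTCC 439) were grown in Mueller Hinton at 10^5 CFU/mL for 24 h at 37 °C. MIC and IC50 come from OD600.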

C. neoformans = assay: microbe, parasite or virus in culture; assay type: cell-based, Cryptococcus neoformans; settings: 48 h
Method in brief: as §1

[1] = system: C. neoformans (ATCC350) cells; assay: CLSM PI uptake assay; assay type: cell-based, Cryptococcus neoformans; settings: at MIC, 12 h, then PI
Procedure: After incubation, treated and untreated cells were centrifuged at 2000× g for 10 min at 4 °C and suspended in cold PBS and followed by 2–3 washings with PBS. The cells were then incubated with PI (1.49 μM) for 1 h at room temperature with constant shaking (150× g rpm), and later harvested by centrifugation and suspended in PBS. Then, the cells were examined using confocal microscopy (Olympus Fluoview™ FV1000 SPD; Olympus, Tokyo, Japan) with a wavelength of >560 nm for PI. C. neoformans cells without treatment of active peptides served as a control.

Red blood cells (RBCs) = settings: for % Hemolysis HC10 / % Hemolysis HC50: red cells of human
Procedure: Human blood in 10% citrate phosphate dextrose was obtained from Government Hospital, Chandigarh, India. Red blood cells (RBCs) were harvested by spinning at 1000× g for 5 min followed by washing with PBS 3–5 times. The packed cell volume was obtained and utilized to make a 0.8% (v/v) suspension of RBCs in PBS. […] The plate was incubated at 37 °C for 60 min followed by centrifugation at 1000× g for 5 min at 25 °C. The supernatant (100 μL) was transferred to a fresh microtiter plate and absorbance was recorded at 414 nm (Varioskan LUX multimode microplate reader, Thermo Scientific, Waltham, MS, USA) to analyze RBC lysis. Untreated RBCs in PBS and lysed RBCs in 0.1% Triton X-100 were used as negative and positive controls, respectively [29]. Percent hemolysis was calculated using following equation [38]. (3) % Hemolysis=Absorbance of treated sample−Absorbance of negative control/Absorbance of positive control−Absorbance of negative control×100

C. neoformans cells = assay: Time kill assay; settings: time-kill profile over 24 h
E. faecalis = assay: microbe, parasite or virus in culture; assay type: cell-based, Enterococcus faecalis; settings: 48 h
C. parapsilosis = assay: microbe, parasite or virus in culture; assay type: cell-based, Candida parapsilosis; settings: 48 h
Method in brief: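 Growth inhibition was measured by broth microdilution. MIC and IC50 were calculated from optical density at 600 nm after 48 h at 30 °C for Candida and Cryptococcus (10^3 CFU/mL, RPMI 1640 or YPED) and after 24 h at 37 °C for the Gram-positive bacteria (10^5 CFU/mL, Mueller Hinton).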

S. pyogens = assay: microbe, parasite or virus in culture; assay type: cell-based, Streptococcus pyogenes; settings: 48 h

Procedure for HEK 293: as §2
Procedure for HeLa: as §2

In the case of COC(=O)[C@H](Cc1ncn(Cc2ccccc2I)c1I)NC(=O)[C@@H](N)Cc1c[nH]c2ccccc12 [10o, Trp-His[1-(2-iodobenzyl)-5-iodo]-OMe], the “Cytotoxic nature” value (HeLa) is reported as “non-cytotoxic”, the IC50 (E. coli) is reported as >35.2 µg/mL and the MIC (E. coli) is reported as >64.0 µg/mL. For the same compound, the CC50 at 18 h (in vitro) was > 100 µg/mL, the IC50 (C. glabrata) was >35.2 µg/mL and the MIC (C. glabrata) was >64.0 µg/mL. The MIC (C. neoformans) was 4.59 µg/mL (≈ 6.58 µM), the “PI fluorescence of treated cells (CLSM)” value [1] was “prominent red fluorescence” and the “Hemolytic behavior” value (Red blood cells (RBCs)) was “non-hemolytic”. The “% Hemolysis HC10” value (Red blood cells (RBCs)) was 52.17 µg/mL, the “% Hemolysis HC50” value (Red blood cells (RBCs)) was >100 µg/mL and the “Time after which growth/CFUs of cryptococcal cells dropped or were inhibited” value (C. neoformans cells) was 12 h. The IC50 (E. faecalis) was 17.6 µg/mL (≈ 25.2 µM), the MIC (E. faecalis) was 32.0 µg/mL (≈ 45.9 µM) and the “Cytotoxic nature” value (HEK 293) was “non-cytotoxic”. For the same compound, the IC50 (C. parapsilosis) was >35.2 µg/mL, the MIC (C. parapsilosis) was >64.0 µg/mL and the IC50 (S. pyogens) was >35.2 µg/mL. The MIC (S. pyogens) was >64.0 µg/mL.

For COC(=O)[C@H](Cc1ncn(Cc2cc(C(C)(C)C)cc(C(C)(C)C)c2)c1I)NC(=O)[C@@H](N)Cc1c[nH]c2ccccc12 [10d, Trp-His[1-(3,5-di-tert-butylbenzyl)-5-iodo]-OMe], the “Cytotoxic nature” value (HeLa) was “non-cytotoxic”, the IC50 (E. coli) was 17.6 µg/mL (≈ 25.7 µM) and the MIC (E. coli) was 32.0 µg/mL (≈ 46.8 µM). The CC50 at 18 h (in vitro) was > 100 µg/mL, the IC50 (C. glabrata) was >35.2 µg/mL and the MIC (C. glabrata) was >64.0 µg/mL. For the same compound, the IC50 (C. neoformans) was 2.20 µg/mL (≈ 3.22 µM), the MIC (C. neoformans) was 4.01 µg/mL (≈ 5.87 µM) and the “PI fluorescence of treated cells (CLSM)” value [1] was “prominent red fluorescence”. The “Hemolytic behavior” value (Red blood cells (RBCs)) was “non-hemolytic”, the “% Hemolysis HC10” value (Red blood cells (RBCs)) was 50.53 µg/mL and the “% Hemolysis HC50” value (Red blood cells (RBCs)) was >100 µg/mL. The “Time after which growth/CFUs of cryptococcal cells dropped or were inhibited” value (C. neoformans cells) was 12 h, the IC50 (E. faecalis) was 17.6 µg/mL (≈ 25.7 µM) and the MIC (E. faecalis) was 32.0 µg/mL (≈ 46.8 µM). The “Cytotoxic nature” value (HEK 293) was “non-cytotoxic”, the IC50 (C. parapsilosis) was >35.2 µg/mL and the MIC (C. parapsilosis) was >64.0 µg/mL. For the same compound, the IC50 (S. pyogens) was >35.2 µg/mL and the MIC (S. pyogens) was >64.0 µg/mL.
